Results taken from ChEMBL document CHEMBL3217405, “Methanocarba ring as a ribose modification in ligands of G protein-coupled purine and pyrimidine receptors: synthetic approaches” (Medchemcomm, 2013).

Experiments:
[1] = biological target: T1, Adenosine receptor A3 (Homo sapiens, UniProt P0DMS8); assay: Binding affinity to adenosine A3 receptor (unknown origin)
T1 sequence (P0DMS8 whole entry): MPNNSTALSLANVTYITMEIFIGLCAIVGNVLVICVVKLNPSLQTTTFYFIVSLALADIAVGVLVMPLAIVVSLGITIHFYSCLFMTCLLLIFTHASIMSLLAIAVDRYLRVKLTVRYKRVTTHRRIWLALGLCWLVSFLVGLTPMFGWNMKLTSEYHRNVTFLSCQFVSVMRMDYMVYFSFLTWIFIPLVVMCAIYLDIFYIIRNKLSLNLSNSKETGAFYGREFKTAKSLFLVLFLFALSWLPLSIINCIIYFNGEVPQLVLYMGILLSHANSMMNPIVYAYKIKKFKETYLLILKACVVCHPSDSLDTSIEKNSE

[2] = biological target: T1, Adenosine receptor A3; assay: Agonist activity at adenosine A3 receptor (unknown origin) assessed as stimulation of [35S]GTPgammaS binding; assay type: functional
[3] = biological target: Adenosine receptors; A1 & A3 (Homo sapiens) (UniProt P30542+P0DMS8); assay: Selectivity ratio of adenosine A3 receptor (unknown origin) over adenosine A1 receptor (unknown origin)

Row | EC50 [2] [µM] | Selectivity ratio [3] | SMILES | also measured
1 |  |  | O=P(O)(OC[C@@]12C[C@@H]1[C@@H](n1cnc3c(O)ncnc31)[C@H](O)[C@@H]2O)OP(=O)(O)OC[C@@]12C[C@@H]1[C@@H](n1cnc3c(O)ncnc31)[C@H](O)[C@@H]2O | Ki [1]: 22 µM
2 | < 0.001 |  | OC[C@@]12C[C@@H]1[C@@H](n1cnc3c(NCc4cccc(I)c4)ncnc31)[C@H](O)[C@@H]2O | 
3 | < 0.001 |  | OC[C@@]12C[C@@H]1[C@@H](n1cnc3c(NCc4cccc(I)c4)nc(Cl)nc31)[C@H](O)[C@@H]2O | 
4 |  | 39 | CNc1nc(Cl)nc2c1ncn2[C@H]1[C@H](O)[C@H](O)[C@]2(CO)C[C@H]12 | 
5 |  | 12 | CNc1ncnc2c1ncn2[C@H]1[C@H](O)[C@H](O)[C@]2(CO)C[C@H]12 | 
6 |  | 130 | CNC(=O)[C@@]12C[C@@H]1[C@@H](n1cnc3c(NC)nc(Cl)nc31)[C@H](O)[C@@H]2O | 
